From patent US11311533B2, “Opioid receptor antagonist conjugate and use thereof” (SHANGHAI HANMAI BIO-PHARMA CO., LTD., priority 2016, dated 2022) come the findings set out here.

Values joined by “and” are separate entries in the source; they are usually repeats but may differ in a detail not shown here. Identical values can stand only once.

The test system of one data set is mice. In words: Mouse hot plate analgesia experiment (antagonism of morphine analgesia, blood-brain barrier study). The conditions noted are these: for Average Pain Threshold after Administration (s) Mean ± SD: 60 minutes after administration; for Passage through the blood-brain barrier (concluded from antagonism of the analgesic effect of morphine): mouse hot plate, conjugate subcutaneous after morphine by gavage; for Difference between the pain threshold before and after administration (significance): before vs 60 minutes after administration, Na1037 and Na1041: high-dose groups. Here is the method:
Six conjugates Na1021, Na1029, Na1045, Na1037, Na1041, and Na1049 were subjected to mouse hot plate analgesia experiments for four times, respectively. In each experiment, mice (JOINN Laboratories (Suzhou)) were randomly divided into four groups (eight per group): one blank control group, one morphine control group, and two other groups which were administered with morphine by gavage first, and then low dose and high dose of the conjugates were subcutaneously injected respectively. The mice were put on a hot plate (55±0.1) ° C. before administration, and the time was recorded immediately. The duration from the beginning on the hot plate to the first hind paw licking was recorded as the reaction time of heat-pain sensation (i.e., pain threshold, the unit is second (s)). The pain threshold was set as 100% analgesia if there was no hind paw licking in 60 seconds. It was recorded as 60 seconds when the time exceeded 60 seconds to prevent burn of foot. The mice were again put on a (55±0.1) ° C. hot plate 60 minutes after the administration of drug and the reaction time of heat-pain sensation was recorded. […] The value of the pain thresholds before and after administration was compared and the percentage of increase in pain threshold was calculated according to the following formula to determine the effect of drug on antagonizing morphine analgesia. Percentage of increase in pain threshold=[(average heat pain threshold after administration−average pain threshold before administration)/average pain threshold before administration]×100%

Data set [1] deals with OPRM1 (Mμ opioid receptor gene) receptor (Homo sapiens, UniProt P35372). The data set is described as follows: cell-based. The following applies: for inhibition at 10 µM: OPRM1, read-out: Inhibition rate (%) of highest concentration (mean ± standard deviation) (N = 2).
Chain of OPRM1 (Mμ opioid receptor gene) receptor (P35372 whole entry): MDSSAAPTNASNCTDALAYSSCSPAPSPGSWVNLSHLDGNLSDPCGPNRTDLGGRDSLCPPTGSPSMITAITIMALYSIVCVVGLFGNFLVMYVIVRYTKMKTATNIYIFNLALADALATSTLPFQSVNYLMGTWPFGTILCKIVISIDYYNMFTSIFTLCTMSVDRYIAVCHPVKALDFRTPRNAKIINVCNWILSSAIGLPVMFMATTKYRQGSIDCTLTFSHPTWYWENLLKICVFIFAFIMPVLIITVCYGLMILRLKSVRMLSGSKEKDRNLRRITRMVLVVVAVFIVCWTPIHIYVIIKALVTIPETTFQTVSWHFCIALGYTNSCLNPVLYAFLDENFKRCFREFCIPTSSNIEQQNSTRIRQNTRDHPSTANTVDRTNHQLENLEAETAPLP
Description: Cell suspension was inoculated into a 384-well microplate at a density of 15,000 cells per well, and cultured in a 37° C./5% CO2 incubator for at least 18 hours before experiment.
Before the test, the conjugates to be tested was diluted with HBSS buffer (containing 20 mM HEPES) and prepared as 5× solution with a concentration five times of the test solution. […] The concentration of the corresponding control DMSO is 0.1%.
The protocol for preparing agonist detection: cells were inoculated into 384-well microplates, 20 μl of cell suspension per well (containing 15,000 cells); the plate was placed in 37° C./5% CO2 incubator to continue the culture; cells were taken out after 18 hours, and dye was added, 20 μl per well; the plate was incubated in 37° C./5% CO2 incubator for 1 hour and equilibrated at room temperature for 15 minutes; and 10 μl of 5× test solution of agonist was added to each well for RFU value detection.
The protocol for preparing inhibitor detection: cells were inoculated into 384-well microplates, 20 μl of cell suspension per well (containing 15,000 cells); the plate was placed in 37° C./5% CO2 incubator to continue the culture; cells were taken out after 18 hours; for the inhibitor detection, 20 μl of dye was added to the plate, and then 10 μl of prepared conjugate solution was added; the plate was incubated in 37° C./5% CO2 for 1 hour and equilibrate at room temperature for 15 minutes; 12.5 μl of 5× EC80 positive agonist was added for RFU value detection.
The 384-well microplate containing the conjugate solution (5× test concentration), cell plate and pipette tip box were placed in FLIPR (Molecule Devices), and the agonist detection program was run. The overall detection time of the instrument was 120 seconds. 10 μl of agonist was automatically added to the plate at the 21st second. […] (Molecule Devices), and the inhibitor detection program was run. The overall detection time of the instrument was 120 seconds. 12.5 μl of positive agonist was automatically added to the plate at the 21st second.
Setting [2] is: 4 μmol/kg subcutaneous + Morphine by gavage.
[3] abbreviates: 20 μmol/kg subcutaneous + Morphine by gavage.

Take `CN1CC[C@]23c4c5ccc(O)c4O[C@H]2[C@@H](O)C=C[C@H]3[C@H]1C5` [Morphine, morphine, reference compound]: in the data set on mice (morphine control group, cut-off 60 s), the “Average Pain Threshold after Administration (s) Mean ± SD” value is 53.25 ± 10.96 s and 52.00 ± 9.67 s and 38.5 ± 15.58 s and 39.00 ± 17.25 s. For the same compound, the “Average Pain Threshold before Administration (s) Mean ± SD” value in the data set with mice (morphine control group, hot plate 55 °C) was 19.25 ± 5.57 s and 20.38 ± 3.93 s and 20.88 ± 4.91 s and 15.12 ± 6.38 s.

For the compound `Oc1ccc2c3c1O[C@H]1[C@@H](OCCOCCOCCOCCO[C@H]4CC[C@@]5(O)[C@H]6Cc7ccc(O)c8c7[C@@]5(CCN6CC5CC5)[C@H]4O8)CC[C@@]4(O)[C@@H](C2)N(CC2CC2)CC[C@]314` [Nal021, PEG4-(6-α-naltrexol)2-ether], it took 0.229 µM to reach half-maximal inhibition in data set [1] (IC50). Also, the inhibition at 10 µM in data set [1] came out at 100.3 ± 0.56%. The “Average Pain Threshold before Administration (s) Mean ± SD” value in the data set with mice (4.36 μmol/kg + Morphine group) was found to be 20.63 ± 7.07 s; in the data set on mice (21.8 μmol/kg + Morphine group), 18.63 ± 4.60 s. Further, the “Percentage of Increase in Pain Threshold” value came out at 172.66% in the data set with mice (4.36 μmol/kg + morphine) and 220.72% in the data set with mice (21.8 μmol/kg + morphine). Further, the entries for the “Average Pain Threshold after Administration (s) Mean ± SD” value in the data set with mice (4.36 μmol/kg subcutaneous + Morphine by gavage) and in the data set with mice (21.8 μmol/kg subcutaneous + Morphine by gavage) were 56.25 ± 10.61 s and 59.75 ± 0.71 s, respectively. Further, the “Passage through the blood-brain barrier (concluded from antagonism of the analgesic effect of morphine)” value (“Passage through the blood-brain barrier” below) with mice was “cannot pass through the blood-brain barrier”.

Take `Oc1ccc2c3c1O[C@H]1[C@@H](OCCOCCOCCOCCOCCOCCO[C@H]4CC[C@@]5(O)[C@H]6Cc7ccc(O)c8c7[C@@]5(CCN6CC5CC5)[C@H]4O8)CC[C@@]4(O)[C@@H](C2)N(CC2CC2)CC[C@]314` [Nal025, PEG6-(6-α-naltrexol)2-ether]: in data set [1], the IC50 was 0.185 µM and the inhibition at 10 µM is 100.6 ± 0.48%.

As for `Oc1ccc2c3c1O[C@H]1[C@H](OCCOCCOCCOCCOCCOCCO[C@@H]4CC[C@@]5(O)[C@H]6Cc7ccc(O)c8c7[C@@]5(CCN6CC5CC5)[C@H]4O8)CC[C@@]4(O)[C@@H](C2)N(CC2CC2)CC[C@]314` [Nal026, PEG6-(6-β-naltrexol)2-ether], in data set [1], the IC50 was determined as 0.183 µM and the inhibition at 10 µM worked out at 100.5 ± 0.26%.

Regarding `COCCOCCOCCOCCOCCOCCO[C@H]1CC[C@@]2(O)[C@H]3Cc4ccc(O)c5c4[C@@]2(CCN3CC2CC2)[C@H]1O5` [Nal037, mPEG6-(6-α-naltrexol)-ether], in data set [1], the IC50 worked out at 0.225 µM. For the same compound, the inhibition at 10 µM in data set [1] was found to be 100.6 ± 0.34%. For the same compound, the “Average Pain Threshold before Administration (s) Mean ± SD” value is given as 19.38 ± 5.21 s with mice (4 μmol/kg + Morphine group) and 20.5 ± 3.93 s with mice (20 μmol/kg + Morphine group). In addition, the figures for the “Percentage of Increase in Pain Threshold” value in the data set with mice (4 μmol/kg + morphine) and with mice (20 μmol/kg + morphine) were 62.54% and 1.85%, respectively. Further, the “Average Pain Threshold after Administration (s) Mean ± SD” value in the data set on mice (setting [2]) was 31.50 ± 11.83 s; in the data set with mice (setting [3]) it was 20.88 ± 5.87 s. In the data set with mice, the “Difference between the pain threshold before and after administration (significance)” value is “not significant”. Also, the “Passage through the blood-brain barrier” value in the data set on mice is “can pass through the blood-brain barrier”.

For the compound `COCCOCCOCCOCCOCCOCCOCCOCCO[C@H]1CC[C@@]2(O)[C@H]3Cc4ccc(O)c5c4[C@@]2(CCN3CC2CC2)[C@H]1O5` [Nal041, mPEG8-(6-α-naltrexol)-ether], the IC50 in data set [1] worked out at 0.21 µM. Besides, the inhibition at 10 µM in data set [1] stood at 95.8 ± 1.86%. In addition, the results for the “Average Pain Threshold before Administration (s) Mean ± SD” value in the data set on mice (4 μmol/kg + Morphine group) and in the data set on mice (20 μmol/kg + Morphine group) were 14.25 ± 1.75 s and 16.88 ± 6.79 s, respectively. The results for the “Percentage of Increase in Pain Threshold” value in the data set with mice (4 μmol/kg + morphine) and with mice (20 μmol/kg + morphine) were 170.18% and 30.33%, respectively. In addition, the “Average Pain Threshold after Administration (s) Mean ± SD” value in the data set on mice (setting [2]) is 38.5 ± 14.74 s; in the data set with mice (setting [3]) it was 22.00 ± 5.12 s. Also, in the data set on mice, the “Difference between the pain threshold before and after administration (significance)” value was “not significant”. The “Passage through the blood-brain barrier” value with mice is listed as “can pass through the blood-brain barrier”.

For `Oc1ccc2c3c1O[C@H]1[C@@H](OCCOCCOCCO[C@H]4CC[C@@]5(O)[C@H]6Cc7ccc(O)c8c7[C@@]5(CCN6CC5CC5)[C@H]4O8)CC[C@@]4(O)[C@@H](C2)N(CC2CC2)CC[C@]314` [Nal053, PEG3-(6-α-naltrexol)2-ether], in data set [1], the IC50 is 0.25 µM and the inhibition at 10 µM stood at 101.8 ± 0.97%.

By IC50 is commonly meant the point on the concentration scale where inhibition reaches its midpoint. Low readings indicate greater potency in that assay, high ones weaker potency in that assay.
